Measured values as given in patent US20140024527A1, “HERBICIDAL PYRAZINONES” (E I DU DE NEMOURS AND COMPANY, priority 2011, published 2014).

Legend:
Type in all cases: in vivo
[1] = test system: barnyardgrass (Echinochloa crus-galli); experiment: Test A postemergence; conditions: 0 to 100 scale, 0 no effect, 100 complete control, approx. 10 days
From the text: (§1) Seeds of barnyardgrass (Echinochloa crus-galli), large crabgrass (Digitaria sanguinalis), giant foxtail (Setaria faberii), morningglory (Ipomoea spp.), pigweed (Amaranthus retroflexus), velvetleaf (Abutilon theophrasti), wheat (Triticum aestivum) and corn (Zea mays) were planted into a blend of loam soil and sand and treated preemergence with a directed soil spray using test chemicals formulated in a non-phytotoxic solvent mixture which included a surfactant. At the same time these species were also treated with postemergence applications of test compounds formulated in the same manner. Plants ranged in height from 2 to 10 cm and were in the one- to two-leaf stage for the postemergence treatments. Treated plants and untreated controls were maintained in a greenhouse for approximately 10 days, after which time all treated plants were compared to untreated controls and visually evaluated for injury. Plant response ratings, summarized in Table A, are based on a 0 to 100 scale where 0 is no effect and 100 is complete control.

corn (Zea mays) [2] = experiment: Test A postemergence; conditions: 0 to 100 scale, 0 no effect, 100 complete control, approx. 10 days
From the text: as §1

[3] = test system: giant foxtail (Setaria faberii); experiment: Test A postemergence; conditions: 0 to 100 scale, 0 no effect, 100 complete control, approx. 10 days
From the text: as §1

[4] = test system: large crabgrass (Digitaria sanguinalis); experiment: Test A postemergence; conditions: 0 to 100 scale, 0 no effect, 100 complete control, approx. 10 days
From the text: as §1

[5] = test system: morningglory (Ipomoea spp.); experiment: Test A postemergence; conditions: 0 to 100 scale, 0 no effect, 100 complete control, approx. 10 days
From the text: as §1

[6] = test system: pigweed (Amaranthus retroflexus); experiment: Test A postemergence; conditions: 0 to 100 scale, 0 no effect, 100 complete control, approx. 10 days
From the text: as §1

[7] = test system: velvetleaf (Abutilon theophrasti); experiment: Test A postemergence; conditions: 0 to 100 scale, 0 no effect, 100 complete control, approx. 10 days
From the text: as §1

[8] = test system: wheat (Triticum aestivum); experiment: Test A postemergence; conditions: 0 to 100 scale, 0 no effect, 100 complete control, approx. 10 days
From the text: as §1

[9] = test system: barnyardgrass (Echinochloa crus-galli); experiment: Test A preemergence; conditions: 0 to 100 scale, 0 no effect, 100 complete control, approx. 10 days
From the text: as §1

corn (Zea mays) [10] = experiment: Test A preemergence; conditions: 0 to 100 scale, 0 no effect, 100 complete control, approx. 10 days
From the text: as §1

[11] = test system: giant foxtail (Setaria faberii); experiment: Test A preemergence; conditions: 0 to 100 scale, 0 no effect, 100 complete control, approx. 10 days
From the text: as §1

[12] = test system: large crabgrass (Digitaria sanguinalis); experiment: Test A preemergence; conditions: 0 to 100 scale, 0 no effect, 100 complete control, approx. 10 days
From the text: as §1

[13] = test system: morningglory (Ipomoea spp.); experiment: Test A preemergence; conditions: 0 to 100 scale, 0 no effect, 100 complete control, approx. 10 days
From the text: as §1

[14] = test system: pigweed (Amaranthus retroflexus); experiment: Test A preemergence; conditions: 0 to 100 scale, 0 no effect, 100 complete control, approx. 10 days
From the text: as §1

[15] = test system: velvetleaf (Abutilon theophrasti); experiment: Test A preemergence; conditions: 0 to 100 scale, 0 no effect, 100 complete control, approx. 10 days
From the text: as §1

[16] = test system: wheat (Triticum aestivum); experiment: Test A preemergence; conditions: 0 to 100 scale, 0 no effect, 100 complete control, approx. 10 days
From the text: as §1

[17] = test system: barnyardgrass (Echinochloa crus-galli); experiment: Test B flooded paddy test; conditions: Flood
From the text: (§2) Plant species in the flooded paddy test consisted of rice (Oryza sativa), umbrella sedge (Cyperus difformis), ducksalad (Heteranthera limosa) and barnyardgrass (Echinochloa crus-galli) grown to the 2-leaf stage for testing. At time of treatment, test pots were flooded to 3 cm above the soil surface, treated by application of test compounds directly to the paddy water, and then maintained at that water depth for the duration of the test. Treated plants and controls were maintained in a greenhouse for 13 to 15 days, after which time all species were compared to controls and visually evaluated. Plant response ratings, summarized in Table B, are based on a scale of 0 to 100 where 0 is no effect and 100 is complete control. A dash (-) response means no test result.

[18] = test system: ducksalad (Heteranthera limosa); experiment: Test B flooded paddy test; conditions: Flood, scale 0 to 100
From the text: as §2

rice (Oryza sativa) = experiment: Test B flooded paddy test; conditions: Flood, scale 0 to 100
From the text: as §2

[19] = test system: umbrella sedge (Cyperus difformis); experiment: Test B flooded paddy test; conditions: Flood, scale 0 to 100
From the text: as §2

Q: With O=C1CCCC(O)=C1C(=O)c1nc(Cl)c(-c2cccc(Cl)c2)n(C2CCCCC2)c1=O [Compound 3, 5-chloro-6-(3-chlorophenyl)-1-cyclohexyl-3-[(2-hydroxy-6-oxo-1-cyclohexen-1-yl)carbonyl]-2(1H)-pyrazinone] as the compound, how does the “Plant response rating, Barnyardgrass” value ([1]; 62 g ai/ha) read?
A: Its value is 0.

Q: What about the “Plant response rating, Barnyardgrass” value ([1]; 250 g ai/ha) of the same compound?
A: Its value is 0.

Q: And the “Plant response rating, Corn” value (corn (Zea mays) [2]; 62 g ai/ha)?
A: The value was 0.

Q: And the “Plant response rating, Corn” value (corn (Zea mays) [2]; 250 g ai/ha)?
A: The value was 0.

Q: And the “Plant response rating, Foxtail, Giant” value ([3]; 62 g ai/ha)?
A: The value was 0.

Q: What about the “Plant response rating, Foxtail, Giant” value ([3]; 250 g ai/ha) of the same compound?
A: The value was 0.

Q: And the “Plant response rating, Crabgrass, Large” value ([4]; 62 g ai/ha)?
A: The value was 0.

Q: What about the “Plant response rating, Crabgrass, Large” value ([4]; 250 g ai/ha) of the same compound?
A: Its value is 10.

Q: And the “Plant response rating, Morningglory” value ([5]; 62 g ai/ha)?
A: Its value is 0.

Q: And the “Plant response rating, Morningglory” value ([5]; 250 g ai/ha)?
A: The value was 30.

Q: And the “Plant response rating, Pigweed” value ([6]; 62 g ai/ha)?
A: Its value is 0.

Q: What about the “Plant response rating, Pigweed” value ([6]; 250 g ai/ha) of the same compound?
A: The value was 30.

Q: What about the “Plant response rating, Velvetleaf” value ([7]; 62 g ai/ha) of the same compound?
A: The value was 60.

Q: And the “Plant response rating, Velvetleaf” value ([7]; 250 g ai/ha)?
A: The value was 100.

Q: What about the “Plant response rating, Wheat” value ([8]; 62 g ai/ha) of the same compound?
A: Its value is 0.

Q: And the “Plant response rating, Wheat” value ([8]; 250 g ai/ha)?
A: Its value is 0.

Q: And the “Plant response rating, Barnyardgrass” value ([9]; 62 g ai/ha)?
A: The value was 0.

Q: And the “Plant response rating, Barnyardgrass” value ([9]; 250 g ai/ha)?
A: The value was 20.

Q: And the “Plant response rating, Corn” value (corn (Zea mays) [10]; 62 g ai/ha)?
A: Its value is 0.

Q: And the “Plant response rating, Corn” value (corn (Zea mays) [10]; 250 g ai/ha)?
A: Its value is 0.

Q: What about the “Plant response rating, Foxtail, Giant” value ([11]; 62 g ai/ha) of the same compound?
A: The value was 0.

Q: And the “Plant response rating, Foxtail, Giant” value ([11]; 250 g ai/ha)?
A: Its value is 0.

Q: What about the “Plant response rating, Crabgrass, Large” value ([12]; 62 g ai/ha) of the same compound?
A: The value was 0.

Q: And the “Plant response rating, Crabgrass, Large” value ([12]; 250 g ai/ha)?
A: Its value is 30.

Q: And the “Plant response rating, Morningglory” value ([13]; 62 g ai/ha)?
A: Its value is 0.

Q: What about the “Plant response rating, Morningglory” value ([13]; 250 g ai/ha) of the same compound?
A: Its value is 10.

Q: And the “Plant response rating, Pigweed” value ([14]; 62 g ai/ha)?
A: The value was 0.

Q: And the “Plant response rating, Pigweed” value ([14]; 250 g ai/ha)?
A: The value was 60.

Q: And the “Plant response rating, Velvetleaf” value ([15]; 62 g ai/ha)?
A: The value was 40.

Q: What about the “Plant response rating, Velvetleaf” value ([15]; 250 g ai/ha) of the same compound?
A: The value was 80.

Q: What about the “Plant response rating, Wheat” value ([16]; 62 g ai/ha) of the same compound?
A: The value was 0.

Q: What about the “Plant response rating, Wheat” value ([16]; 250 g ai/ha) of the same compound?
A: The value was 0.

Q: And the “Plant response rating, Barnyardgrass” value ([17]; 31 g ai/ha, scale 0 to 100)?
A: Its value is 0.

Q: What about the “Plant response rating, Barnyardgrass” value ([17]; 62 g ai/ha, scale 0 to 100) of the same compound?
A: The value was 0.

Q: What about the “Plant response rating, Barnyardgrass” value ([17]; 125 g ai/ha, scale 0 to 100) of the same compound?
A: Its value is 0.

Q: What about the “Plant response rating, Barnyardgrass” value ([17]; 250 g ai/ha, scale 0 to 100 (0 no effect, 100 complete control)) of the same compound?
A: Its value is 0.

Q: What about the “Plant response rating, Ducksalad” value ([18]; 31 g ai/ha) of the same compound?
A: The value was 0.

Q: And the “Plant response rating, Ducksalad” value ([18]; 62 g ai/ha)?
A: The value was 20.

Q: And the “Plant response rating, Ducksalad” value ([18]; 125 g ai/ha)?
A: Its value is 80.

Q: What about the “Plant response rating, Ducksalad” value ([18]; 250 g ai/ha) of the same compound?
A: Its value is 80.

Q: And the “Plant response rating, Rice” value (rice (Oryza sativa); 31 g ai/ha)?
A: Its value is 0.

Q: And the “Plant response rating, Rice” value (rice (Oryza sativa); 62 g ai/ha)?
A: The value was 0.

Q: And the “Plant response rating, Rice” value (rice (Oryza sativa); 125 g ai/ha)?
A: Its value is 0.

Q: And the “Plant response rating, Rice” value (rice (Oryza sativa); 250 g ai/ha)?
A: The value was 0.

Q: What about the “Plant response rating, Sedge, Umbrella” value ([19]; 31 g ai/ha) of the same compound?
A: The value was 0.

Q: What about the “Plant response rating, Sedge, Umbrella” value ([19]; 62 g ai/ha) of the same compound?
A: The value was 0.

Q: What about the “Plant response rating, Sedge, Umbrella” value ([19]; 125 g ai/ha) of the same compound?
A: Its value is 30.

Q: And the “Plant response rating, Sedge, Umbrella” value ([19]; 250 g ai/ha)?
A: Its value is 60.
